± gives the standard deviation of the averaged measurements.
Legend:
Test in all cases: relative cell growth vs untreated control (GI, NCI-DTP normalisation with time-zero) (fraction of control growth); higher = more growth / less inhibition
Details in all cases: treatment time: 120 h
[1] = tested on: A549
Method: (§1)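 Cancer cell lines in 96-well plates were treated 48 h after seeding with M4076 (ATM inhibitor) and berzosertib (ATR inhibitor), alone or mixed, in 4-fold dilutions for 120 h. Protein was read by sulforhodamine B staining, background-subtracted and normalised NCI-DTP style to untreated control growth. Rows with one concentration equal to 0 are monotherapy.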

[2] = tested on: ASPC1
Method: as §1

[3] = tested on: BXPC3
Method: as §1

[4] = tested on: HEPG2
Method: as §1

[5] = tested on: MDAMB231
Method: as §1

[6] = tested on: MDAMB435
Method: as §1

[7] = tested on: RDES
Method: as §1

[8] = tested on: SAOS2
Method: as §1

[9] = tested on: U87MG
Method: as §1

[10] = tested on: WSUNHL
Method: as §1

COc1cc2ncc3c(c2cc1-c1cn(C)nc1C)n(-c1c(F)cncc1OC)c(=O)n3C [M4076] + CNCc1ccc(-c2cc(-c3nc(-c4ccc(S(=O)(=O)C(C)C)cc4)cnc3N)on2)cc1 [berzosertib]
relative cell growth
Details	[1]	[2]	[3]	[4]	[5]	[6]	[7]	[8]	[9]	[10]
concentration of first compound 0.0195 µM, concentration of partner 0 M	1.18 ± 0.2	1.2 ± 0.16	1.17 ± 0.22	1.41 ± 0.32	1.06 ± 0.085	1.09 ± 0.14	1.1 ± 0.013	1.16 ± 0.15	1.1 ± 0.11	1.22 ± 0.035
concentration of first compound 0.0195 µM, concentration of partner 0.2 µM	0.64	0.322	0.548	0.0154	1.1	1.01	1.16	0.735	0.891	1.48
concentration of first compound 0.0781 µM, concentration of partner 0 M	1.22 ± 0.21	1.08 ± 0.15	1.25 ± 0.24	1.4 ± 0.32	1.02 ± 0.082	1.09 ± 0.14	1.01 ± 0.012	1.14 ± 0.15	1.12 ± 0.11	1.26 ± 0.036
concentration of first compound 0.0781 µM, concentration of partner 0.2 µM	0.574	0.194	0.643	0.000629	0.932	1.05	1.16	0.657	0.839	1.47
concentration of first compound 0.313 µM, concentration of partner 0 M	1.16 ± 0.2	1.2 ± 0.16	1.17 ± 0.22	1.23 ± 0.28	0.93 ± 0.074	1.04 ± 0.13	0.941 ± 0.011	1.05 ± 0.14	1.09 ± 0.11	0.983 ± 0.028
concentration of first compound 0.313 µM, concentration of partner 0.2 µM	0.267	0.0757	0.481	-0.027	0.499	0.622	1.13	0.319	0.682	1.07
concentration of first compound 1 µM, concentration of partner 0 M	0.924	0.84	0.952	0.829	0.858	0.988	0.836	0.782	0.966	0.649
concentration of first compound 1 µM, concentration of partner 0.0195 µM	0.89	0.803	0.987	0.596	0.907	1.01	0.933	0.871	0.944	0.896
concentration of first compound 1 µM, concentration of partner 0.0781 µM	0.431	0.418	0.78	0.0729	0.708	0.701	0.872	0.482	0.82	0.716
concentration of first compound 1 µM, concentration of partner 0.313 µM	0.0877	-0.0794	0.015	-0.0203	0.198	0.14	0.395	0.119	0.343	-0.00911
concentration of first compound 1 µM, concentration of partner 1.25 µM	0.00284	-0.118	-0.096	-0.023	-0.00535	-0.00922	0.0966	-0.0926	0.0996	-0.0958
concentration of first compound 1 µM, concentration of partner 5 µM	0.00285	-0.115	-0.0967	-0.0325	-0.032	-0.0254	-0.0939	-0.1	0.134	-0.11
concentration of first compound 1.25 µM, concentration of partner 0 M	1.09 ± 0.19	0.943 ± 0.13	1.08 ± 0.21	1.16 ± 0.26	0.775 ± 0.062	1.03 ± 0.13	0.877 ± 0.011	0.871 ± 0.11	1.01 ± 0.1	0.572 ± 0.016
concentration of first compound 1.25 µM, concentration of partner 0.2 µM	0.153	0.0458	0.321	-0.0218	0.328	0.411	0.973	0.146	0.505	0.294
concentration of first compound 5 µM, concentration of partner 0 M	0.955 ± 0.16	0.675 ± 0.092	0.894 ± 0.17	0.843 ± 0.19	0.695 ± 0.056	0.92 ± 0.12	0.681 ± 0.0083	0.652 ± 0.084	0.853 ± 0.085	0.166 ± 0.0046
concentration of first compound 5 µM, concentration of partner 0.2 µM	0.11	0.0314	0.228	-0.0276	0.42	0.185	0.706	0.113	0.381	0.0497

CNCc1ccc(-c2cc(-c3nc(-c4ccc(S(=O)(=O)C(C)C)cc4)cnc3N)on2)cc1 [berzosertib] + COc1cc2ncc3c(c2cc1-c1cn(C)nc1C)n(-c1c(F)cncc1OC)c(=O)n3C [M4076]
relative cell growth, concentration of partner 0 M
Details	[1]	[2]	[3]	[4]	[5]	[6]	[7]	[8]	[9]	[10]
concentration of first compound 0.0195 µM	1.22 ± 0.22	1.3 ± 0.23	1.18 ± 0.22	1.09 ± 0.22	1.06 ± 0.1	1.07 ± 0.13	1.15 ± 0.026	1.16 ± 0.16	1.09 ± 0.12	1.44 ± 0.031
concentration of first compound 0.0781 µM	0.999 ± 0.18	1.07 ± 0.19	1.14 ± 0.21	0.33 ± 0.067	1.09 ± 0.1	1.06 ± 0.13	1.14 ± 0.026	1.11 ± 0.15	1.07 ± 0.12	1.68 ± 0.036
concentration of first compound 0.2 µM	0.464	0.344	0.588	0.0562	0.976	0.893	1.01	0.645	0.8	1.18
concentration of first compound 0.313 µM	0.294 ± 0.053	0.0569 ± 0.01	0.34 ± 0.063	0.0114 ± 0.0023	0.775 ± 0.073	0.656 ± 0.082	0.873 ± 0.02	0.559 ± 0.076	0.677 ± 0.075	0.779 ± 0.017
concentration of first compound 1.25 µM	0.0316 ± 0.0058	-0.0955 ± 0.017	-0.112 ± 0.021	-0.033 ± 0.0067	0.0906 ± 0.0085	-0.0138 ± 0.0017	0.254 ± 0.0058	0.0446 ± 0.006	0.185 ± 0.021	-0.0504 ± 0.001
concentration of first compound 5 µM	-0.00795 ± 0.0013	-0.077 ± 0.013	-0.0824 ± 0.015	-0.0501 ± 0.01	-0.057 ± 0.0054	-0.0273 ± 0.0034	-0.0925 ± 0.0021	-0.116 ± 0.016	0.195 ± 0.022	-0.0908 ± 0.0019
